Results reported in US9403997B2, “Non-VOC neutralizing agents for coatings” (Hercules Incorporated, priority 2012, dated 2016).

Experiments:
[1] = Neutralizing agents tested in paint: viscosity, pH, gloss and yellowing compared to AMP-95 (Table 3); set-up: KU (eq) / ICI (eq): unit not given here; settings: for pH (eq): pH of paint; for ICI (eq) / KU (eq): paint viscosity, 23PVC 50-VOC Vinyl Acrylic Semi-Gloss White, HASE thickener
Source text: The neutralizing agents shown in Table 2 were further tested in a paint formulation 23[…] Vinyl Acrylic Semi-Gloss White, using a HASE thickener. Gloss measurements, as well as yellowing were compared to AMP-95.

[2] = Formulations of Table 2 tested in paint for gloss and yellowness (Table 4)
Method: The formulations shown in Table 2 were tested in 23PVC50-VOC vinyl acrylic (UCAR379G) white and tested for gloss and yellowness.

Compound	pH (eq) [1]	ICI (eq) [1]	KU (eq) [1]	pH ([2]; pH of paint, 23PVC50-VOC vinyl acrylic (UCAR379G) white)	ICI (eq) ([2]; paint viscosity)	KU (eq) ([2]; paint viscosity)
NCC(=O)O [Glycine (neutralized w/NaOH), Glycine]	9.7	1.023	94			
DL-Aspartic Acid Potassium Salt Hemihydrate	8.54	1.046	90.8			
CC(C)(N)CO [AMP-95, 2-amino-2-methyl-1-propanol, reference compound]	8.77	1.110	95.2	8.78	1.110	95.2
C[C@H](N)C(=O)O [L-Alanine (neutralized w/NaOH), L-Alanine]	8.61	1.052	94.3			
